# US7569570B2, “Thienopyrimidines, process for preparing the same and use thereof” (Takeda Pharmaceutical Company Limited, priority 2002, dated 2009)
row,SMILES,melting point
1,"CCNC(=O)Nc1ccc(-c2sc3c(c2CN(C)CCN(C)S(C)(=O)=O)c(=O)n(-c2ccc(OCCOC)cc2)c(=O)n3Cc2c(F)cccc2F)cc1 [Example 38, N-{2-[({1-2,6-(difluorobenzyl)-6-(4-{[(ethylamino)carbonyl]amino}phenyl)-3-[4-(2-methoxyethoxy)phenyl]-2,4-dioxo-1,2,3,4-tetrahydrothieno[2,3-d]pyrimidin-5-yl)methyl)(methyl)amino)ethyl)-N-methylsulfonamide]",197 to 199 °C
2,CCNC(=O)Nc1ccc(-c2sc3c(c2CN(C)CCOC)c(=O)n(-c2ccc(OCc4ccccc4)cc2)c(=O)n3Cc2c(F)cccc2F)cc1 [Example 102],223 to 225 °C
3,CCNC(=O)Nc1ccc(-c2sc3c(c2CN(C)CCN2CCCC2=O)c(=O)n(-c2ccc(OCCOC)cc2)c(=O)n3Cc2c(F)cccc2F)cc1 [Example 34],175 to 177 °C
4,"CCNC(=O)Nc1ccc(-c2sc3c(c2CN(C)CCN(C)Cc2ccccc2)c(=O)n(-c2ccccc2)c(=O)n3Cc2c(F)cccc2F)cc1 [Example 25, N-{4-[5-{[{2-[benzyl(methyl)amino]ethyl}(methyl)amino]methyl}-1-(2,6-difluorobenzyl)-2,4-dioxo-3-phenyl-1,2,3,4-tetrahydrothieno[2,3-d]pyrimidin-6-yl]phenyl}-N′-ethylurea]",151 to 153 °C
5,"CCNC(=O)Nc1ccc(-c2sc3c(c2CN(C)CCOC)c(=O)n(-c2ccc(NC(=O)NCC)cc2)c(=O)n3Cc2c(F)cccc2F)cc1 [Example 99, N-[4-(3-(4-{(ethylamino)carbonylamino}phenyl)-1-(2,6-difluorobenzyl)-5-{[2-methoxyethyl(methyl)amino]methyl}-2,4-dioxo-1,2,3,4-tetrahydrothieno[2,3-d]pyrimidin-6-yl)phenyl]-N′-ethylurea]",236 to 239 °C

# Continued, values first:
row,melting point,SMILES
1,211 to 213 °C,CCNC(=O)Nc1ccc(-c2sc3c(c2CNCCOCC)c(=O)n(-c2ccccc2)c(=O)n3Cc2c(F)cccc2F)cc1 [Example 3]
2,140 to 142 °C,"CCNC(=O)Nc1ccc(-c2sc3c(c2CN(C)CCN2CCCC2=O)c(=O)n(-c2ccccc2)c(=O)n3Cc2c(F)cccc2F)cc1 [Example 20, N-{4-[1-(2,6-difluorobenzyl)-5-({methyl[2-(2-oxo-1-pyrrolidinyl)ethyl]amino}methyl)-2,4-dioxo-3-phenyl-1,2,3,4-tetrahydrothieno[2,3-d]pyrimidin-6-yl]phenyl}-N′-ethylurea]"
3,153 to 155 °C,CCNC(=O)Nc1ccc(-c2sc3c(c2CN(C)CCN2CCOC2=O)c(=O)n(-c2ccccc2)c(=O)n3Cc2c(F)cccc2F)cc1 [Example 24]
